The values that follow come from PubChem BioAssay AID248 (DTP/NCI, 2004).

This test concerns L1210 leukemia ip in BDF1 mice, survival T/C. As to the kind of experiment: NCI In Vivo Anticancer Drug Screen. Data for tumor model L1210 Leukemia (intraperitoneal) in B6D2F1 (BDF1) mice. Conditions: endpoint: mean survival time, higher = longer survival. Put shortly: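 In this screen, tumor-bearing mice given compound are compared to those given vehicle, and their survival values are reported as a treated-to-control quotient.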

The mark [1] stands for this setting: dose: 100.0 mg/kg/injection, schedule: Q01DX009 (ip), vehicle: saline.
Where [2] appears, read: dose: 200.0 mg/kg/injection, schedule: Q01DX009 (ip), vehicle: saline.
Setting [3] is: dose: 100.0 mg/kg/injection, schedule: Q04DX003 (ip), vehicle: saline with Tween-80.
Where [4] appears, read: dose: 200.0 mg/kg/injection, schedule: Q04DX003 (ip), vehicle: saline with Tween-80.
[5] abbreviates: dose: 400.0 mg/kg/injection, schedule: Q04DX003 (ip), vehicle: saline with Tween-80.
Where [6] appears, read: dose: 100.0 mg/kg/injection, schedule: Q04DX003 (ip), vehicle: saline.
The mark [7] stands for this setting: dose: 50.0 mg/kg/injection, schedule: Q04DX003 (ip), vehicle: Klucel (hydroxypropylcellulose) (HPC).
The mark [8] stands for this setting: dose: 100.0 mg/kg/injection, schedule: Q04DX003 (ip), vehicle: Klucel (hydroxypropylcellulose) (HPC).
[9] abbreviates: dose: 200.0 mg/kg/injection, schedule: Q04DX003 (ip), vehicle: Klucel (hydroxypropylcellulose) (HPC).
[10] abbreviates: dose: 400.0 mg/kg/injection, schedule: Q04DX003 (ip), vehicle: Klucel (hydroxypropylcellulose) (HPC).

Where “and” joins values, the source holds several entries; their conditions need not be identical. Identical values can stand only once. Inconclusive results and toxic doses are left out.

On to `CC(=O)O[C@@]1(C)C(=O)OCC2=CCN3CC[C@@H](OC(=O)[C@H](C)[C@]1(C)OC(C)=O)[C@@H]23`, for which the T/C (dose: 100.0 mg/kg/injection, schedule: Q01DX001 (ip), vehicle: saline) is 117 % of control.

As for `CC1CNC(=S)N1` (stereo not drawn), the T/C (dose: 100.0 mg/kg/injection, schedule: Q04DX002 (ip), vehicle: Klucel (hydroxypropylcellulose) (HPC)) was 106 % of control; the T/C (dose: 200.0 mg/kg/injection, schedule: Q04DX002 (ip), vehicle: Klucel (hydroxypropylcellulose) (HPC)) was 103 % of control; the T/C (dose: 400.0 mg/kg/injection, schedule: Q04DX002 (ip), vehicle: Klucel (hydroxypropylcellulose) (HPC)) is 106 % of control.

`C1OCC2CCC(CC2)CO1`: the T/C is, setting by setting: (dose: 50.0 mg/kg/injection, schedule: Q01DX009 (ip), vehicle: saline) 95 % of control; under setting [1], 98 % of control; under setting [2], 97 % of control.

With `O=C1C(OCc2ccccc2)=C(OCc2ccccc2)C(=O)c2ccccc21`, the T/C by setting is: (dose: 75.0 mg/kg/injection, schedule: Q01DX001 (ip), vehicle: acetone) 91 % of control; (dose: 150.0 mg/kg/injection, schedule: Q01DX001 (ip), vehicle: acetone) 94 % of control; (dose: 300.0 mg/kg/injection, schedule: Q01DX001 (ip), vehicle: acetone) 90 % of control.

On to `Fc1ccc(-c2n[nH]c3c2CCCc2ccccc2-3)cc1`, for which the T/C runs as follows: under setting [3], 113 % of control; under setting [4], 111 % of control; under setting [5], 102 % of control.

In the case of `CCC(=O)Nc1cccc(OC(=O)N(C(C)C)C(C)C)c1`, the T/C was 93 % of control under setting [3], 93 % of control under setting [4] and 104 % of control under setting [5].

For the molecule `C/C(=N\NC(=S)Nc1cc(Cl)ccc1Cl)c1cc([N+](=O)[O-])c(O)cc1O`, the T/C is 104 % of control (dose: 100.0 mg/kg/injection, schedule: Q01DX001 (ip), vehicle: Klucel (hydroxypropylcellulose) (HPC)); 101 % of control (dose: 200.0 mg/kg/injection, schedule: Q01DX001 (ip), vehicle: Klucel (hydroxypropylcellulose) (HPC)); 93 % of control (dose: 400.0 mg/kg/injection, schedule: Q01DX001 (ip), vehicle: Klucel (hydroxypropylcellulose) (HPC)).

As for `CCCCCCCCNC(=O)C1OC(n2cnc3c(N)ncnc32)C(O)C1O` (stereo not drawn), the T/C (dose: 100.0 mg/kg/injection, schedule: Q01DX005 (ip), vehicle: saline with Tween-80) is 86 % of control; the T/C under setting [1] is 104 % of control; the T/C (dose: 200.0 mg/kg/injection, schedule: Q01DX005 (ip), vehicle: saline with Tween-80) is 105 % of control; the T/C under setting [2] was 91 % of control; the T/C (dose: 400.0 mg/kg/injection, schedule: Q01DX009 (ip), vehicle: saline) is 110 % of control.

With `O=C(COc1ccc(Cl)c(Cl)c1)NCc1ccc[n+](Cc2ccc(S(=O)(=O)F)c(Cl)c2)c1`, the T/C (dose: 25.0 mg/kg/injection, schedule: Q04DX003 (ip), vehicle: saline) is 106 % of control; the T/C (dose: 50.0 mg/kg/injection, schedule: Q04DX003 (ip), vehicle: saline) was 106 % of control; the T/C under setting [6] is 92 % of control and 98 % of control.

As to `Cc1cc(C)nc(NC(N)=NCCc2ccccc2)n1`, the T/C reads like this: (dose: 12.5 mg/kg/injection, schedule: Q01DX009 (ip), vehicle: Klucel (hydroxypropylcellulose) (HPC)) 101 % of control; (dose: 12.5 mg/kg/injection, schedule: Q04DX003 (ip), vehicle: Klucel (hydroxypropylcellulose) (HPC)) 102 % of control; (dose: 25.0 mg/kg/injection, schedule: Q01DX009 (ip), vehicle: Klucel (hydroxypropylcellulose) (HPC)) 101 % of control; (dose: 25.0 mg/kg/injection, schedule: Q04DX003 (ip), vehicle: Klucel (hydroxypropylcellulose) (HPC)) 100 % of control; (dose: 50.0 mg/kg/injection, schedule: Q01DX009 (ip), vehicle: Klucel (hydroxypropylcellulose) (HPC)) 101 % of control; under setting [7], 102 % of control.

In the case of `O=C(O)c1cc2c(cc1[N+](=O)[O-])OCO2`, the T/C by setting is: (dose: 100.0 mg/kg/injection, schedule: Q04DX002 (ip), vehicle: saline with Tween-80) 104 % of control; (dose: 200.0 mg/kg/injection, schedule: Q04DX002 (ip), vehicle: saline with Tween-80) 92 % of control; (dose: 400.0 mg/kg/injection, schedule: Q04DX002 (ip), vehicle: saline with Tween-80) 90 % of control.

Regarding `COC1C(CO)OC(n2cnc3c(N)ncnc32)C1O` (stereo not drawn), the T/C was 102 % of control (dose: 50.0 mg/kg/injection, schedule: Q01DX001 (ip), vehicle: carboxymethylcellulose (CMC)); 110 % of control (dose: 100.0 mg/kg/injection, schedule: Q01DX001 (ip), vehicle: carboxymethylcellulose (CMC)); 116 % of control (dose: 200.0 mg/kg/injection, schedule: Q01DX001 (ip), vehicle: carboxymethylcellulose (CMC)); 98 % of control (dose: 400.0 mg/kg/injection, schedule: Q01DX001 (ip), vehicle: carboxymethylcellulose (CMC)).

For `CCCCC(CC)CCC(O)CC(C)C` (stereo not drawn), the T/C by setting is: under setting [7], 91 % of control; (dose: 100.0 mg/kg/injection, schedule: Q01DX009 (ip), vehicle: Klucel (hydroxypropylcellulose) (HPC)) 104 % of control; under setting [8], 92 % of control; (dose: 200.0 mg/kg/injection, schedule: Q01DX009 (ip), vehicle: Klucel (hydroxypropylcellulose) (HPC)) 101 % of control; under setting [9], 97 % of control; (dose: 400.0 mg/kg/injection, schedule: Q01DX009 (ip), vehicle: Klucel (hydroxypropylcellulose) (HPC)) 89 % of control. Besides, the T/C under setting [10] was 96 % of control.

As to `O=C1NC(CN2CCCC(O)C2)C(=O)NC1CN1CCCC(O)C1` (stereo not drawn) (tested in a mixture with another compound), the T/C reads like this: (dose: 25.0 mg/kg/injection, schedule: Q01DX009 (ip), vehicle: water) 104 % of control; (dose: 50.0 mg/kg/injection, schedule: Q01DX009 (ip), vehicle: water) 104 % of control; (dose: 100.0 mg/kg/injection, schedule: Q01DX009 (ip), vehicle: water) 112 % of control; (dose: 200.0 mg/kg/injection, schedule: Q01DX009 (ip), vehicle: water) 108 % of control.

`CCCCn1cnc2c(=S)nc(N)[nH]c21`: the T/C was 115 % of control (dose: 3.3 mg/kg/injection, schedule: Q01DX Z (ip), vehicle: methylcellulose (MC)); 118 % of control (dose: 5.0 mg/kg/injection, schedule: Q01DX Z (ip), vehicle: methylcellulose (MC)); 111 % of control (dose: 19.0 mg/kg/injection, schedule: Q04DX003 (ip), vehicle: saline with Tween-80); 164 % of control (dose: 66.0 mg/kg/injection, schedule: Q04DX003 (ip), vehicle: saline with Tween-80).

Turning to `O=C(Nc1nccs1)c1ccc(C(=O)Nc2nccs2)cc1`, the T/C is 93 % of control (dose: 15.0 mg/kg/injection, schedule: Q01DX Z (ip), vehicle: carboxymethylcellulose (CMC)); 100 % of control (dose: 30.0 mg/kg/injection, schedule: Q01DX Z (ip), vehicle: carboxymethylcellulose (CMC)); 100 % of control (dose: 60.0 mg/kg/injection, schedule: Q01DX Z (ip), vehicle: carboxymethylcellulose (CMC)); 100 % of control and 90 % of control (dose: 120.0 mg/kg/injection, schedule: Q01DX Z (ip), vehicle: carboxymethylcellulose (CMC)); 96 % of control (dose: 180.0 mg/kg/injection, schedule: Q01DX Z (ip), vehicle: carboxymethylcellulose (CMC)); 96 % of control (dose: 270.0 mg/kg/injection, schedule: Q01DX Z (ip), vehicle: carboxymethylcellulose (CMC)). The T/C (dose: 400.0 mg/kg/injection, schedule: Q01DX Z (ip), vehicle: carboxymethylcellulose (CMC)) was 95 % of control.

Consider `COC1C(=O)CCC2(CO2)C1(O)C1(C)OC1CC=C(C)C` (stereo not drawn), for which the T/C runs as follows: (dose: 50.0 mg/kg/injection, schedule: Q01DX009 (ip), vehicle: saline with Tween-80) 104 % of control; (dose: 100.0 mg/kg/injection, schedule: Q01DX009 (ip), vehicle: saline with Tween-80) 109 % of control; under setting [6], 106 % of control; (dose: 200.0 mg/kg/injection, schedule: Q01DX009 (ip), vehicle: saline with Tween-80) 87 % of control; (dose: 200.0 mg/kg/injection, schedule: Q04DX003 (ip), vehicle: saline) 100 % of control.

In the case of `CC1(C)C=C(C(Cl)c2ccccc2)C(=O)c2ccccc21` (stereo not drawn), the T/C was 95 % of control under setting [8], 101 % of control under setting [9] and 101 % of control under setting [10].

On to `Nc1nc(N)c(N=Nc2ccc(S(=O)(=O)O)cc2)c(N)n1`, for which the T/C reads like this: under setting [3], 102 % of control; under setting [4], 102 % of control; under setting [5], 104 % of control.
